Data on one molecule can be found in PMC11632414 (2024).

Each structure is given as a SMILES string.

The test system of assay [1] is 23TAG (DNA, G4) TAGGGTTAGGGTTAGGGTTAGGG
The experiment in a line: UV-Vis titration, Benesi-Hildebrand. The note with it: K+ (20 mM potassium phosphate); pH 7, 25 °C; 5 μM porphyrin titrated with DNA.

The test system of assay [2] is CMA (DNA, G4) TAGGGAGGGTAGGGAGGGT
Description: UV-Vis titration, Benesi-Hildebrand. The note with it: K+ (20 mM potassium phosphate); pH 7, 25 °C; 5 μM porphyrin titrated with DNA.

Turning to `C[n+]1ccc(-c2c3nc(c(-c4cc[n+](C)cc4)c4ccc([nH]4)c(-c4cc[n+](C)cc4)c4nc(c(-c5cc[n+](C)cc5)c5ccc2[nH]5)C=C4)C=C3)cc1`, the Kb entry in assay [1] is “(1.5±0.4)×10^6 M^-1”; in assay [2], “(1.5±0.6)×10^6 M^-1”.
